smiles,measurement,value
"CN1CCCC1C(c1ccc2cc(OCc3ccccc3)ccc2c1)n1ccnc1 (single isomer, unassigned) [Example 3-30b, 1-[(6-Benzyloxy-naphthalen-2-yl)-(1-methyl-pyrrolidin-2-yl)-methyl]-1H-imidazole]",melting point,110 to 112 °C
"CN1CCCC1C(c1ccc2cc(OCc3ccccc3)ccc2c1)n1ccnc1 (single isomer, unassigned) [Example 3-30a, 1-[(6-Benzyloxy-naphthalen-2-yl)-(1-methyl-pyrrolidin-2-yl)-methyl]-1H-imidazole]",melting point,124 to 126 °C

# Reference: patent publication US7662844B2, “Naphthylene derivatives as cytochrome P450 inhibitors” (OSI Pharmaceuticals, Inc., priority 2004, dated 2010)
